Test results as given in ChEMBL document CHEMBL6120965, “Structure-Activity Relationship Studies Leading to the Discovery of Highly Water-Soluble and Biocompatible Acyclic Cucurbit[n]uril FY-3451 as a Universal Antagonist That Rapidly Reverses Neuromuscular Blocking Agents In Vivo” (J Med Chem, 2024).

Legend:
[1] = Cytotoxicity against rat H9c2 cells assessed as cell viability at 0.5 mg/ml measured after 25 hrs by CCK-8 assay; assay type: toxicity, cell-based; settings: read-out: Activity
Pancuronium = assay: Binding affinity to Pancuronium by Competition UV-Vis titration method
[2] = Toxicity in human plasma assessed as abnormality in aPTT by measuring clotting time at < 4.8 mg/kg; assay type: organism-based; settings: in vivo
Rattus norvegicus [3] = assay: Recovery of Vec-induced neuromuscular block in Sprague-Dawley rat assessed as […] ratio (TOFr) >= 90% by measuring recovery time at 25 mg/kg, iv (reference value: 525 seconds); assay type: functional
[4] = Toxicity in Sprague-Dawley rat assessed as histological changes in heart measured at 2000 mg/kg, iv upto 14 days by H and E assay; assay type: organism-based; settings: in vivo, 336 h, time < 14 day
Vecuronium = assay: Binding affinity to Vecuronium by Competition UV-Vis titration method
[5] = Therapeutic index, ratio of toxicity in iv dosed Sprague-Dawley rat assessed as maximum tolerated dose to recovery of Roc/Vec/Panc-induced neuromuscular block in Sprague-Dawley rat assessed as […] ratio (TOFr) by measuring recovery time at 25 mg/kg, iv; assay type: organism-based; settings: in vivo, read-out: TI
[6] = system: Trans-cydohexane-1,4-diartunonium dichloride; assay: Binding affinity to Trans-[…] dichloride by Competition UV-Vis titration method
Rattus norvegicus [7] = assay: Recovery of Roc-induced neuromuscular block in Sprague-Dawley rat assessed as […] ratio (TOFr) >= 90% by measuring recovery time at 25 mg/kg, iv (reference value: 597 seconds); assay type: functional
[8] = Cytotoxicity against rat H9c2 cells assessed as cell viability measured after 25 hrs by CCK-8 assay; assay type: toxicity, cell-based
[9] = Water solubility of the compound measured at 25 degreeC; assay type: physicochemical
Rhodamine 6G = assay: Binding affinity to Rhodamine 6G by Competition UV-Vis titration method
Proflavine = assay: Binding affinity to Proflavine by Competition UV-Vis titration method
[10] = Toxicity in human whole blood assessed as clotting indices measured at 1 mg/ml; assay type: tissue-based
Rattus norvegicus [11] = assay: Recovery of Roc-induced neuromuscular block in Sprague-Dawley rat assessed as […] ratio (TOFr) by measuring recovery time at 12.5 mg/kg, iv (reference value: […]); assay type: functional
Rattus norvegicus [12] = assay: Recovery of CisA-induced neuromuscular block in Sprague-Dawley rat assessed as […] ratio (TOFr) by measuring recovery time at 25 mg/kg, iv (reference value: 784 seconds); assay type: functional
[13] = Hemolytic activity in human erythrocytes assessed as hemolysis at 0.51 to 32.8 mg/ml; assay type: toxicity, cell-based, Erythrocyte; settings: dose 0.51-32.8 mg/ml, read-out: Activity
[14] = Toxicity in iv dosed Sprague-Dawley rat assessed as maximum tolerated dose measured upto 14 days; assay type: organism-based; settings: in vivo, 336 h, time < 14 day
Rattus norvegicus [15] = assay: Recovery of CisA-induced neuromuscular block in Sprague-Dawley rat assessed as […] ratio (TOFr) >= 90% by measuring recovery time at 150 mg/kg, iv (reference value: 784 seconds); assay type: functional
[16] = Toxicity in Sprague-Dawley rat assessed as histological changes in liver measured at 2000 mg/kg, iv upto 14 days by H and E assay; assay type: organism-based; settings: in vivo, 336 h, time < 14 day
Rattus norvegicus [17] = assay: Recovery of IMC-1-induced neuromuscular block in Sprague-Dawley rat assessed as […] ratio (TOFr) >= 90% by measuring recovery time at 10 mg/kg, iv (reference value: 4021 seconds); assay type: functional
[18] = Toxicity in Sprague-Dawley rat assessed as histological changes in spleen measured at 2000 mg/kg, iv upto 14 days by H and E assay; assay type: organism-based; settings: in vivo, 336 h, time < 14 day
[19] = system: Midazolium-based-macrocycle; assay: Binding affinity to Midazolium-based-macrocycle by Competition UV-Vis titration method
Cisatracurium = assay: Binding affinity to Cisatracurium by Competition UV-Vis titration method
[20] = Toxicity in Sprague-Dawley rat assessed as body weight loss measured at 2000 mg/kg, iv upto 14 days; assay type: organism-based; settings: in vivo, 336 h, time < 14 day
[21] = Therapeutic index, ratio of toxicity in iv dosed Sprague-Dawley rat assessed as maximum tolerated dose to recovery of CisA-induced neuromuscular block in Sprague-Dawley rat assessed as […] ratio (TOFr) by measuring recovery time at 80 to 100 mg/kg, iv; assay type: organism-based; settings: in vivo, dose 80-100 mg/kg, read-out: TI
[22] = Toxicity in Sprague-Dawley rat assessed as histological changes in kidney measured at 2000 mg/kg, iv upto 14 days by H and E assay; assay type: organism-based; settings: in vivo, 336 h, time < 14 day
Rattus norvegicus [23] = assay: Recovery of CisA-induced neuromuscular block in Sprague-Dawley rat assessed as […] ratio (TOFr) >= 90% by measuring recovery time at 100 mg/kg, iv (reference value: 784 seconds); assay type: functional
[24] = Toxicity in Sprague-Dawley rat assessed as histological changes in lungs measured at 2000 mg/kg, iv upto 14 days by H and E assay; assay type: organism-based; settings: in vivo, 336 h, time < 14 day
Rattus norvegicus [25] = assay: Recovery of Pan-induced neuromuscular block in Sprague-Dawley rat assessed as […] ratio (TOFr) >= 90% by measuring recovery time at 25 mg/kg, iv (reference value: 3600 seconds); assay type: functional
[26] = Hemolytic activity in Sprague-Dawley rat erythrocytes assessed as hemolysis at 0.51 to 32.8 mg/ml; assay type: toxicity, cell-based, Erythrocyte; settings: dose 0.51-32.8 mg/ml, read-out: Activity
Rocuronium = assay: Binding affinity to Rocuronium by Competition UV-Vis titration method

Compound: C[C@]12N3Cc4c(c(OCCCS(=O)(=O)[O-])c5c(c4OCCCS(=O)(=O)[O-])CCC5)CN1C(=O)N1CN4C(=O)N5CN6C(=O)N7CN8C(=O)N9Cc%10c(c(OCCCS(=O)(=O)[O-])c%11c(c%10OCCCS(=O)(=O)[O-])CCC%11)CN%10C(=O)N(CN%11C(=O)N(CN%12C(=O)N(CN(C3=O)[C@]12C)[C@@H]4[C@H]%125)[C@@H]6[C@H]%117)[C@]8(C)[C@@]9%10C.[Na+].[Na+].[Na+].[Na+]
- viability at 25 h, 0.5 mg/ml [1]: 80%
- Ka (Pancuronium): 1.22 10^7/M
- Activity [2]: Non-toxic
- Time (Rattus norvegicus [3]): 15 s
- Activity [4]: Non-toxic
- Ka (Vecuronium): 21 10^7/M
- selectivity ratio [5]: 60
- Ka [6]: 0.043 10^7/M
- Time (Rattus norvegicus [7]): 24 s
- IC50 at 25 h [8]: > 1000 µg/mL
- solubility [9]: 1000 mg/mL
- Ka (Rhodamine 6G): 0.1 10^7/M
- Ka (Proflavine): 29.6 10^7/M
- Activity [10]: Non-toxic
- Time (Rattus norvegicus [11]): 15 s
- Time (Rattus norvegicus [12]): 27 s
- hemolysis [13]: < 5%
- MTD [14]: 500 mg/kg
- Time (Rattus norvegicus [15]): 24 s
- Activity [16]: Non-toxic
- Time (Rattus norvegicus [17]): 12 s
- Activity [18]: Non-toxic
- Ka [19]: 339 10^7/M
- Ka (Cisatracurium): 0.088 10^7/M
- Activity [20]: Non-toxic
- selectivity ratio [21]: 18.8
- Activity [22]: Non-toxic
- Time (Rattus norvegicus [23]): 34 s
- Activity [24]: Non-toxic
- Time (Rattus norvegicus [25]): 20 s
- hemolysis [26]: < 5%
- Ka (Rocuronium): 20.1 10^7/M
